According to US20060106026A1, “4-(4-methylpiperazin-1-ylmethyl)-n-[4-pyridin-3-yl)pyrimidin-2-ylamino)phenyl]-benzamide for treating anaplastic thyroid cancer” (priority 2002, published 2006):
“And” between values parts separate entries of the source, which are not always exact repeats. Identical values can stand only once. Like-named read-outs stand apart in the source and are kept apart here.

How the values were obtained:
[1] = test system: 1F3 cell line; details: IF3 cells, 10 μM of SALT I (data not shown)
[2] = test system: ARO; details: 10 μM of SALT I
Description: (§1) For flow cytometry analysis, cells were fixed with 70% ethanol and wash with PBS. After pre-incubation with RNase A (0.1 mg per ml) at room temperature, cells were stained with PI (25 μg per ml). Fluorescence was measured by using FACScan flow cytometer (Becton Dickinson, Mountain View, Calif.). This experiment was performed at least three times.

[3] = test system: TPC-1; details: TPC-1, 10 μM of SALT I, 48 hours
Description: as §1

[4] = test system: cell cycle regulatory proteins (p21cip1, p27kip1, cyclin A, B1, CDC2, cyclin D3)
Description: After transfer onto nitrocellulose membranes (Pall Corporation, Ann Arbor, Mich., USA), blots were probed with the appropriate antibodies. β-actin was used as a loading control. The antibodies used were: anti-p21waf1 (Ab-1, Calbiochem, Darmstardt, Germany), anti-p27-8, Santa Cruz Biotechnology, Santa Cruz, Calif., USA), anti-cyclin A (C88020, BD Biosciences, Boston, Mass., USA), anti-cyclin B1 (C23420, BD Biosciences), anti-CDK1/Cdc2 (C12720, BD Biosciences), anti-cyclin D3 (C28620, BD Biosciences), anti-Phospho-c-ABL (Tyr245, Cell Signaling Technology, Beverly, Mass., USA), anti-c-Abl (24-11, Santa Cruz Biotechnology), anti-c-KIT (C-14, Santa Cruz Biotechnology), anti-PDGFRα (C-20, Santa Cruz Biotechnology), anti-PDGFRβ (P-20, Santa Cruz Biotechnology), anti-ERK1/2 (Cell Signalling Technology), anti-p-ERK (Cell Signalling Technology) and anti-Actin (C-11, Santa Cruz Biotechnology). Detection was performed with an enhanced chemiluminescence kit (ECL, Amersham Life Sciences, Buckinghamshire, UK). Immunoblotting experiments were performed at least twice. […] Since p53 status is likely to have some effect on the level of c-Abl protein, the expression level of c-Abl in 1F3 cells was also measured. […] The cyclin-dependent kinase (CDK) inhibitors, p21^cip1 and p27^kip1, can block CDK activity in the S to G2 as well as in the G1 to S phase transition of the cell cycle. […] The activity of CDKs is dependent, in part, on the relative abundance of cyclin subunits and the presence of CDK inhibitors. Among the cyclins and CDKs, cyclin A, B, and CDC2 are involved in the progression from G2 to M phase.

[5] = test system: ERK1/2
Description: Abl was immunoprecipitated from cell lysates using the indicated antibody. In vitro kinase assay was performed as described previously (Dorey et al., Oncogene, 2000, […]:8075-84). Radiolabelled GST-Crk was quantified using a PhosphorImager (Molecular Dynamics, Inc., Sunnyvale, Calif., USA). […] Stimulation was with 20% FCS for 8 minutes, cell lysates were collected and subjected to SDS-PAGE and Western blotting carried out using antibodies against ERK1/2 and the phosphorylated form of ERK1/2. […] A common response to extracellular signals such as growth factors is the activation of the mitogen-activated protein (MAP) kinase cascade.

[6] = test system: FRO cells; details: single daily administration of 50 mg/kg over 14 consecutive days, i.p.
Description: Mouse xenograft model. All mice were maintained in the Nagasaki University (Nagasaki, Japan) animal facility and all animal experiments described in this study were conducted in accordance with the principles and procedures outlined in the Guide for the Care and Use of Laboratory Animals of the Nagasaki University School of Medicine. Five million FRO cells suspended in RPMI 1640 were injected s.c. into the flanks of 8-week-old female BalB/c nu/nu mice (Charles-River Japan, Tokyo, Japan). Tumor sizes were measured every other day with calipers and tumor volumes were calculated according to the formula: a^2×b×0.4 where a is the smallest diameter and b is the diameter perpendicular to a. […] Mice in the control group received injections of pure water. The body weight feeding behavior and motor activity of each animal were monitored as indicators of general health.
Statistical analysis: Data are presented as mean ±SD unless otherwise specified. Student's t-test and Mann Whitney U test were used for comparison between two groups for parametric and nonparametric data, respectively. A p value <0.05 is considered statistically significant.

[7] = test system: Refractory Progressive Thyroid Carcinoma; details: SALT I without any other therapy; rapid growth and invasion during the previous year
Description: This clinical study is part of the Phase I/II clinical study which is exploratory in nature.
When any mild adverse effect occurs, the dose is decreased to 200 mg once daily depending on the degree of the adverse effect. […] In principle, where the tumor size is reduced by half, the dose is increased up to 800 mg/day and continued for a maximum of six months. […] No concomitant use of an anticancer drug is permitted in principle. Drugs that relieve other conditions or symptoms may be used concomitantly with caution exercised for their adverse effects.

[8] = test system: FRO; assay: Cell growth assay, experiment 1 (cell count kit 48 h; growth curve 5 days); details: for cell number quantified with a cell count kit (Wako), mean: 48 hour-treatment, no SALT I: 1.677
[9] = test system: ARO; assay: as above; details: for cell number quantified with a cell count kit (Wako), mean: 48 hour-treatment, no SALT I: 0.959
[10] = test system: KTC-1; assay: as above; details: for cell number quantified with a cell count kit (Wako), mean: 48 hour-treatment, no SALT I: 0.413

CS(=O)(=O)O.Cc1ccc(NC(=O)c2ccc(CN3CCN(C)CC3)cc2)cc1Nc1nccc(-c2cccnc2)n1 [SALT I]
cell growth curve on a 5 day period [1]: do not change the cell growth | increase of the proportion of cells in G2/M-phase versus DMSO ([2]; 48 hours (9.28% vs. 3.78%)): increased more then two-fold | percentage of cells in G2-M phase ([2]; 48 hours, DMSO 3.8): 9.28% and 9.3% | percentage of cells in S phase ([2]; 48 hours, DMSO 19.7): 13.1% | percentage of cells in G1 phase ([2]; 48 hours, DMSO 76.6): 77.6% | effect on cell cycle (G2/M or S-phase changes) [3]: No such changes were observed | percentage of cells in S phase ([3]; DMSO 9.7): 9.3% | percentage of cells in G2-M phase ([3]; DMSO 22.6): 13.1% | percentage of cells in G1 phase ([3]; DMSO 67.8): 77.6% | Expression of p2^cip1 [4]: markedly increased | Expression of p27^kip1 [4]: increased | levels of cyclin A, B1 and CDC2 ([4]; ARO and FRO cell lines, 10 μM of SALT I, 24 hours): reduced | level of cyclin D3 ([4]; ARO cells, 10 μM of SALT I, 24 hours): reduced | Expression of p2^cip1 ([4]; ARO, KTC-1 and 1F3 cells, 10 μM of SALT I): did not change | levels of cyclin A, B1, CDC2 and cyclin D3 ([4]; KTC-1 and 1F3, 10 μM of SALT I, 24 hours): had no effect | phosphorylation of ERK1/2 in response to serum stimulation [5]: had no effect on its phosphorylation | level of p-ERK1/2 ([5]; ARO and FRO, 10 μM SALT I for two hours, 20% FCS for 8 minutes): did not affect | anti-tumor effect [6]: strong anti-tumor effect | tumor growth in first patient (preliminary results) [7]: stopped their growth for 3 months | growth suppression, dose dependence ([8]; FRO (undetectable p53), lower than 50 μM, 48 h): show growth suppression in SALT I dose dependent manner | cell growth curve on a 5 day period ([8]; FRO, 10 μM of SALT I, compared to control cells): time-dependent reduction of cell growth | cell death ([8]; FRO, 50 μM of SALT I, 48 h): died | cell number quantified with a cell count kit (Wako), mean ([8]; FRO, SALT I 1 μM): 1.414 | cell number quantified with a cell count kit (Wako), mean ([8]; FRO, SALT I 10 μM): 1.192 | cell number quantified with a cell count kit (Wako), mean ([8]; FRO, SALT I 50 μM): 0.228 | growth suppression, dose dependence ([9]; ARO (mutant p53), lower than 50 μM, 48 h): show growth suppression in SALT I dose dependent manner | cell growth curve on a 5 day period ([9]; ARO, 10 μM of SALT I, compared to control cells): time-dependent reduction of cell growth | cell death ([9]; ARO, 50 μM of SALT I, 48 h): died | cell number quantified with a cell count kit (Wako), mean ([9]; ARO, SALT I 1 μM): 0.785 | cell number quantified with a cell count kit (Wako), mean ([9]; ARO, SALT I 10 μM): 0.539 | cell number quantified with a cell count kit (Wako), mean ([9]; ARO, SALT I 50 μM): 0.096 | growth suppression, dose dependence ([10]; KTC-1 (wild type p53), lower than 50 μM, 48 h): do not | cell growth curve on a 5 day period ([10]; KTC-1, 10 μM of SALT I (data not shown)): do not change the cell growth | cell death ([10]; KTC-1, 50 μM of SALT I, 48 h): died | cell number quantified with a cell count kit (Wako), mean ([10]; KTC-1, SALT I 1 μM): 0.403 | cell number quantified with a cell count kit (Wako), mean ([10]; KTC-1, SALT I 10 μM): 0.379 | cell number quantified with a cell count kit (Wako), mean ([10]; KTC-1, SALT I 50 μM): 0.064
